# Data from PubChem BioAssay (NCI).
#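 The compound was tested at five concentrations on cells cultured in 96-well plates, with a 48-hour exposure period. Here, GI50 denotes the concentration required for 50% inhibition of growth. TGI marks complete inhibition of growth.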
# Key:
# Assay in all cases: NCI-60 cell line screen, 48 h
# U251 CNS = test system: U251 CNS
# CAKI-1 renal = test system: CAKI-1 renal
# SK-MEL-28 melanoma = test system: SK-MEL-28 melanoma
# OVCAR-8 ovarian = test system: OVCAR-8 ovarian
# MALME-3M melanoma = test system: MALME-3M melanoma
# NCI-H460 lung = test system: NCI-H460 lung
# HS 578T breast = test system: HS 578T breast
# BT-549 breast = test system: BT-549 breast
# ACHN renal = test system: ACHN renal
# SF-295 CNS = test system: SF-295 CNS
# 786-0 renal = test system: 786-0 renal
# HCT-15 colon = test system: HCT-15 colon
# COLO 205 colon = test system: COLO 205 colon
# UACC-62 melanoma = test system: UACC-62 melanoma
# SN12C renal = test system: SN12C renal
# NCI-H522 lung = test system: NCI-H522 lung
# MCF7 breast = test system: MCF7 breast
# M14 melanoma = test system: M14 melanoma
# OVCAR-5 ovarian = test system: OVCAR-5 ovarian
# MDA-MB-435 = test system: MDA-MB-435
# HT29 colon = test system: HT29 colon
# HOP-92 NSCLC = test system: HOP-92 NSCLC
# OVCAR-3 ovarian = test system: OVCAR-3 ovarian
# SW-620 colon = test system: SW-620 colon
# SK-MEL-5 melanoma = test system: SK-MEL-5 melanoma
# DU-145 prostate = test system: DU-145 prostate
# SNB-75 CNS = test system: SNB-75 CNS
# SK-MEL-2 melanoma = test system: SK-MEL-2 melanoma
# NCI/ADR-RES ovarian = test system: NCI/ADR-RES ovarian
# NCI-H23 lung = test system: NCI-H23 lung
# HCC-2998 colon = test system: HCC-2998 colon
# NCI-H226 lung = test system: NCI-H226 lung
# HL-60(TB) leukemia = test system: HL-60(TB) leukemia
# SF-539 CNS = test system: SF-539 CNS
# OVCAR-4 ovarian = test system: OVCAR-4 ovarian
# UACC-257 melanoma = test system: UACC-257 melanoma
# A498 renal = test system: A498 renal
# CCRF-CEM leukemia = test system: CCRF-CEM leukemia
# A549 NSCLC = test system: A549 NSCLC
# EKVX NSCLC = test system: EKVX NSCLC
# MDA-MB-231 breast = test system: MDA-MB-231 breast
# RXF 393 renal = test system: RXF 393 renal
# RPMI-8226 leukemia = test system: RPMI-8226 leukemia
# KM12 colon = test system: KM12 colon
# HCT-116 colon = test system: HCT-116 colon
# UO-31 renal = test system: UO-31 renal
# SK-OV-3 ovarian = test system: SK-OV-3 ovarian
# SNB-19 CNS = test system: SNB-19 CNS
# TK-10 renal = test system: TK-10 renal
# LOX IMVI melanoma = test system: LOX IMVI melanoma
# HOP-62 NSCLC = test system: HOP-62 NSCLC
# T-47D breast = test system: T-47D breast
# PC-3 prostate = test system: PC-3 prostate
# SF-268 CNS = test system: SF-268 CNS
# IGROV1 ovarian = test system: IGROV1 ovarian
# K-562 leukemia = test system: K-562 leukemia
# SR leukemia = test system: SR leukemia
# MOLT-4 leukemia = test system: MOLT-4 leukemia
smiles,measurement,setting,value
CCN1CCN(Cc2ccc(NC(=O)c3nc4ccc5[nH]ncc5c4c4c3CCCC4)cc2C(F)(F)F)CC1,GI50,U251 CNS,883 nM
same,TGI,U251 CNS,1630 nM
same,GI50,CAKI-1 renal,976 nM
same,TGI,CAKI-1 renal,2420 nM
same,GI50,SK-MEL-28 melanoma,899 nM
same,TGI,SK-MEL-28 melanoma,1650 nM
same,GI50,OVCAR-8 ovarian,1010 nM
same,TGI,OVCAR-8 ovarian,2050 nM
same,GI50,MALME-3M melanoma,827 nM
same,TGI,MALME-3M melanoma,1590 nM
same,GI50,NCI-H460 lung,935 nM
same,TGI,NCI-H460 lung,1780 nM
same,GI50,HS 578T breast,969 nM
same,TGI,HS 578T breast,2130 nM
same,GI50,BT-549 breast,6330 nM
same,TGI,BT-549 breast,13000 nM
same,GI50,ACHN renal,861 nM
same,TGI,ACHN renal,1560 nM
same,GI50,SF-295 CNS,888 nM
same,TGI,SF-295 CNS,1800 nM
same,GI50,786-0 renal,886 nM
same,TGI,786-0 renal,1650 nM
same,GI50,HCT-15 colon,950 nM
same,TGI,HCT-15 colon,1960 nM
same,GI50,COLO 205 colon,861 nM
same,TGI,COLO 205 colon,1680 nM
same,GI50,UACC-62 melanoma,922 nM
same,TGI,UACC-62 melanoma,1880 nM
same,GI50,SN12C renal,865 nM
same,TGI,SN12C renal,1630 nM
same,GI50,NCI-H522 lung,882 nM
same,TGI,NCI-H522 lung,1850 nM
same,GI50,MCF7 breast,884 nM
same,TGI,MCF7 breast,1840 nM
same,GI50,M14 melanoma,885 nM
same,TGI,M14 melanoma,1800 nM
same,GI50,OVCAR-5 ovarian,1480 nM
same,TGI,OVCAR-5 ovarian,5460 nM
same,GI50,MDA-MB-435,918 nM
same,TGI,MDA-MB-435,1670 nM
same,GI50,HT29 colon,923 nM
same,TGI,HT29 colon,1910 nM
same,GI50,HOP-92 NSCLC,1610 nM
same,TGI,HOP-92 NSCLC,7650 nM
same,GI50,OVCAR-3 ovarian,997 nM
same,TGI,OVCAR-3 ovarian,1920 nM
same,GI50,SW-620 colon,969 nM
same,TGI,SW-620 colon,1890 nM
same,GI50,SK-MEL-5 melanoma,903 nM
same,TGI,SK-MEL-5 melanoma,1630 nM
same,GI50,DU-145 prostate,1250 nM
same,TGI,DU-145 prostate,2980 nM
same,GI50,SNB-75 CNS,1060 nM
same,TGI,SNB-75 CNS,7170 nM
same,GI50,SK-MEL-2 melanoma,850 nM
same,TGI,SK-MEL-2 melanoma,1900 nM
same,GI50,NCI/ADR-RES ovarian,1080 nM
same,TGI,NCI/ADR-RES ovarian,2820 nM
same,GI50,NCI-H23 lung,1760 nM
same,TGI,NCI-H23 lung,7210 nM
same,GI50,HCC-2998 colon,816 nM
same,TGI,HCC-2998 colon,1590 nM
same,GI50,NCI-H226 lung,2980 nM
same,TGI,NCI-H226 lung,13600 nM
same,GI50,HL-60(TB) leukemia,983 nM
same,TGI,HL-60(TB) leukemia,1990 nM
same,GI50,SF-539 CNS,870 nM
same,TGI,SF-539 CNS,1600 nM
same,GI50,OVCAR-4 ovarian,1070 nM
same,TGI,OVCAR-4 ovarian,2630 nM
same,GI50,UACC-257 melanoma,938 nM
same,TGI,UACC-257 melanoma,1840 nM
same,GI50,A498 renal,6890 nM
same,TGI,A498 renal,14400 nM
same,GI50,CCRF-CEM leukemia,1150 nM
same,TGI,CCRF-CEM leukemia,3260 nM
same,GI50,A549 NSCLC,1320 nM
same,TGI,A549 NSCLC,3800 nM
same,GI50,EKVX NSCLC,2090 nM
same,TGI,EKVX NSCLC,8810 nM
same,GI50,MDA-MB-231 breast,879 nM
same,TGI,MDA-MB-231 breast,1660 nM
same,GI50,RXF 393 renal,738 nM
same,TGI,RXF 393 renal,1430 nM
same,GI50,RPMI-8226 leukemia,1070 nM
same,TGI,RPMI-8226 leukemia,2610 nM
same,GI50,KM12 colon,988 nM
same,TGI,KM12 colon,1940 nM
same,GI50,HCT-116 colon,870 nM
same,TGI,HCT-116 colon,1700 nM
same,GI50,UO-31 renal,729 nM
same,TGI,UO-31 renal,1400 nM
same,GI50,SK-OV-3 ovarian,7250 nM
same,TGI,SK-OV-3 ovarian,14200 nM
same,GI50,SNB-19 CNS,931 nM
same,TGI,SNB-19 CNS,2010 nM
same,GI50,TK-10 renal,1830 nM
same,TGI,TK-10 renal,6790 nM
same,GI50,LOX IMVI melanoma,836 nM
same,TGI,LOX IMVI melanoma,1550 nM
same,GI50,HOP-62 NSCLC,815 nM
same,TGI,HOP-62 NSCLC,1650 nM
same,GI50,T-47D breast,854 nM
same,TGI,T-47D breast,1920 nM
same,GI50,PC-3 prostate,1300 nM
same,TGI,PC-3 prostate,4200 nM
same,GI50,SF-268 CNS,2300 nM
same,TGI,SF-268 CNS,9200 nM
same,GI50,IGROV1 ovarian,892 nM
same,TGI,IGROV1 ovarian,1720 nM
same,GI50,K-562 leukemia,827 nM
same,TGI,K-562 leukemia,2120 nM
same,GI50,SR leukemia,1190 nM
same,TGI,SR leukemia,2650 nM
same,GI50,MOLT-4 leukemia,1010 nM
same,TGI,MOLT-4 leukemia,2280 nM
